Source: the supplement of paper PMC10307832

Tests used:
Assay in all cases: relative viability (nuclei count vs DMSO), 5 days (fraction); higher = more cells survive
[1] = tested on: ChaGo-K-1
Outline: (§1)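 After 5 days of treatment, lung cancer cells in 1536-well plates were fixed and stained in a single step (final 0.05% Triton X-100, 1% formaldehyde, 1 ug/ml Hoechst) and their nuclei counted on 4× images. Treatment had been applied by pin tool the day after seeding as one drug alone or as a fixed anchor-drug dose with five library-drug doses (not always all listed) in √10 steps. Relative viability is the nuclei count of treated wells divided by that of vehicle wells, and values are medians of duplicate plates.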

[2] = tested on: LXF-289
Outline: as §1

[3] = tested on: NCI-H3122
Outline: as §1

[4] = tested on: RERF-LC-KJ
Outline: as §1

[5] = tested on: LCLC-103H
Outline: as §1

[6] = tested on: LOU-NH91
Outline: as §1

[7] = tested on: HCC-78
Outline: as §1

[8] = tested on: NCI-H322M
Outline: as §1

[9] = tested on: SK-LU-1
Outline: as §1

[10] = tested on: LU99A
Outline: as §1

[11] = tested on: NCI-H2085
Outline: as §1

[12] = tested on: NCI-H2126
Outline: as §1

[13] = tested on: NCI-H1666
Outline: as §1

[14] = tested on: LK-2
Outline: as §1

[15] = tested on: NCI-H23
Outline: as §1

[16] = tested on: NCI-H1975
Outline: as §1

[17] = tested on: SW 1573
Outline: as §1

[18] = tested on: HCC-827
Outline: as §1

[19] = tested on: SW 900
Outline: as §1

[20] = tested on: EMC-BAC-2
Outline: as §1

[21] = tested on: EPLC-272H
Outline: as §1

[22] = tested on: NCI-H2405
Outline: as §1

O=C(O)c1ccc(-c2c[nH]c3ncc(-c4ccccc4)cc23)cc1C1CCCC1 + Cc1cc(Nc2cc(N3CCN(C)CC3)nc(Sc3ccc(NC(=O)C4CC4)cc3)n2)n[nH]1 [Tozasertib] (partner 0.1 µM)
relative viability ([1]; first compound 0.04 µM): 0.213
relative viability ([1]; first compound 0.1265 µM): 0.225
relative viability ([1]; first compound 0.4 µM): 0.242
relative viability ([1]; first compound 1.265 µM): 0.215
relative viability ([2]; first compound 0.04 µM): 0.229
relative viability ([2]; first compound 0.1265 µM): 0.187
relative viability ([2]; first compound 0.4 µM): 0.126
relative viability ([2]; first compound 1.265 µM): 0.143
relative viability ([3]; first compound 0.04 µM): 0.568
relative viability ([3]; first compound 0.1265 µM): 0.45
relative viability ([3]; first compound 0.4 µM): 0.407
relative viability ([3]; first compound 1.265 µM): 0.326
relative viability ([4]; first compound 0.04 µM): 0.531
relative viability ([4]; first compound 0.1265 µM): 0.422
relative viability ([4]; first compound 0.4 µM): 0.407
relative viability ([4]; first compound 1.265 µM): 0.275
relative viability ([5]; first compound 0.04 µM): 0.538
relative viability ([5]; first compound 0.1265 µM): 0.552
relative viability ([5]; first compound 0.4 µM): 0.4
relative viability ([5]; first compound 1.265 µM): 0.392
relative viability ([6]; first compound 0.04 µM): 0.584
relative viability ([6]; first compound 0.1265 µM): 0.688
relative viability ([6]; first compound 0.4 µM): 0.616
relative viability ([6]; first compound 1.265 µM): 0.526
relative viability ([7]; first compound 0.1265 µM): 0.468
relative viability ([7]; first compound 0.4 µM): 0.405
relative viability ([7]; first compound 1.265 µM): 0.345
relative viability ([8]; first compound 0.04 µM): 0.472
relative viability ([8]; first compound 0.1265 µM): 0.521
relative viability ([8]; first compound 0.4 µM): 0.452
relative viability ([8]; first compound 1.265 µM): 0.437
relative viability ([9]; first compound 0.04 µM): 0.296
relative viability ([9]; first compound 0.1265 µM): 0.347
relative viability ([9]; first compound 0.4 µM): 0.298
relative viability ([9]; first compound 1.265 µM): 0.292
relative viability ([10]; first compound 0.04 µM): 0.268
relative viability ([10]; first compound 0.1265 µM): 0.253
relative viability ([10]; first compound 0.4 µM): 0.281
relative viability ([10]; first compound 1.265 µM): 0.257
relative viability ([11]; first compound 0.04 µM): 0.772
relative viability ([11]; first compound 0.1265 µM): 0.829
relative viability ([11]; first compound 0.4 µM): 0.598
relative viability ([11]; first compound 1.265 µM): 0.52
relative viability ([12]; first compound 0.04 µM): 0.84
relative viability ([12]; first compound 0.1265 µM): 0.833
relative viability ([12]; first compound 0.4 µM): 0.868
relative viability ([12]; first compound 1.265 µM): 0.644
relative viability ([13]; first compound 0.04 µM): 0.627
relative viability ([13]; first compound 0.1265 µM): 0.587
relative viability ([13]; first compound 0.4 µM): 0.546
relative viability ([13]; first compound 1.265 µM): 0.419
relative viability ([14]; first compound 0.04 µM): 0.186
relative viability ([14]; first compound 0.1265 µM): 0.161
relative viability ([14]; first compound 0.4 µM): 0.181
relative viability ([14]; first compound 1.265 µM): 0.184
relative viability ([15]; first compound 0.04 µM): 0.355
relative viability ([15]; first compound 0.1265 µM): 0.369
relative viability ([15]; first compound 0.4 µM): 0.364
relative viability ([15]; first compound 1.265 µM): 0.353
relative viability ([16]; first compound 0.04 µM): 0.681
relative viability ([16]; first compound 0.1265 µM): 0.875
relative viability ([16]; first compound 0.4 µM): 0.794
relative viability ([16]; first compound 1.265 µM): 0.729
relative viability ([17]; first compound 0.04 µM): 0.183
relative viability ([17]; first compound 0.1265 µM): 0.194
relative viability ([17]; first compound 0.4 µM): 0.211
relative viability ([17]; first compound 1.265 µM): 0.148
relative viability ([18]; first compound 0.04 µM): 0.459
relative viability ([18]; first compound 0.1265 µM): 0.475
relative viability ([18]; first compound 0.4 µM): 0.404
relative viability ([18]; first compound 1.265 µM): 0.328
relative viability ([19]; first compound 0.04 µM): 0.638
relative viability ([19]; first compound 0.1265 µM): 0.585
relative viability ([19]; first compound 0.4 µM): 0.526
relative viability ([19]; first compound 1.265 µM): 0.311
relative viability ([20]; first compound 0.04 µM): 0.29
relative viability ([20]; first compound 0.1265 µM): 0.283
relative viability ([20]; first compound 0.4 µM): 0.272
relative viability ([20]; first compound 1.265 µM): 0.272
relative viability ([21]; first compound 0.04 µM): 0.295
relative viability ([21]; first compound 0.1265 µM): 0.313
relative viability ([21]; first compound 0.4 µM): 0.274
relative viability ([21]; first compound 1.265 µM): 0.0995
relative viability ([22]; first compound 0.04 µM): 0.725
relative viability ([22]; first compound 0.1265 µM): 0.806
relative viability ([22]; first compound 0.4 µM): 0.648
relative viability ([22]; first compound 1.265 µM): 0.583

O=C(O)c1ccc(-c2c[nH]c3ncc(-c4ccccc4)cc23)cc1C1CCCC1 + NC(=O)Nc1cc(-c2cccc(F)c2)sc1C(=O)N[C@H]1CCCNC1 [AZD7762] (partner 0.2 µM)
relative viability ([1]; first compound 0.04 µM): 0.845
relative viability ([1]; first compound 0.1265 µM): 1.02
relative viability ([1]; first compound 0.4 µM): 0.907
relative viability ([1]; first compound 1.265 µM): 0.848
relative viability ([2]; first compound 0.04 µM): 1.07
relative viability ([2]; first compound 0.1265 µM): 1.25
relative viability ([2]; first compound 0.4 µM): 1.02
relative viability ([2]; first compound 1.265 µM): 0.922
relative viability ([3]; first compound 0.04 µM): 0.97
relative viability ([3]; first compound 0.1265 µM): 1.04
relative viability ([3]; first compound 0.4 µM): 1.05
relative viability ([3]; first compound 1.265 µM): 0.999
relative viability ([4]; first compound 0.04 µM): 0.569
relative viability ([4]; first compound 0.4 µM): 1.06
relative viability ([4]; first compound 1.265 µM): 0.935
relative viability ([5]; first compound 0.04 µM): 0.832
relative viability ([5]; first compound 0.1265 µM): 0.822
relative viability ([5]; first compound 0.4 µM): 0.846
relative viability ([5]; first compound 1.265 µM): 0.759
relative viability ([6]; first compound 0.04 µM): 0.818
relative viability ([6]; first compound 0.1265 µM): 0.866
relative viability ([6]; first compound 0.4 µM): 0.787
relative viability ([6]; first compound 1.265 µM): 0.769
relative viability ([7]; first compound 0.1265 µM): 0.734
relative viability ([7]; first compound 0.4 µM): 0.779
relative viability ([7]; first compound 1.265 µM): 0.712
relative viability ([8]; first compound 0.04 µM): 0.585
relative viability ([8]; first compound 0.1265 µM): 0.631
relative viability ([8]; first compound 0.4 µM): 0.625
relative viability ([8]; first compound 1.265 µM): 0.65
relative viability ([10]; first compound 0.04 µM): 0.486
relative viability ([10]; first compound 0.1265 µM): 0.522
relative viability ([10]; first compound 0.4 µM): 0.421
relative viability ([10]; first compound 1.265 µM): 0.411
relative viability ([11]; first compound 0.04 µM): 0.944
relative viability ([11]; first compound 0.1265 µM): 1.09
relative viability ([11]; first compound 0.4 µM): 1.03
relative viability ([11]; first compound 1.265 µM): 0.871
relative viability ([12]; first compound 0.04 µM): 1.02
relative viability ([12]; first compound 0.1265 µM): 1.11
relative viability ([12]; first compound 0.4 µM): 1.08
relative viability ([12]; first compound 1.265 µM): 1
relative viability ([13]; first compound 0.04 µM): 0.798
relative viability ([13]; first compound 0.1265 µM): 1
relative viability ([13]; first compound 0.4 µM): 0.875
relative viability ([13]; first compound 1.265 µM): 0.728
relative viability ([14]; first compound 0.04 µM): 0.446
relative viability ([14]; first compound 0.1265 µM): 0.614
relative viability ([14]; first compound 0.4 µM): 0.373
relative viability ([14]; first compound 1.265 µM): 0.49
relative viability ([15]; first compound 0.04 µM): 0.218
relative viability ([15]; first compound 0.1265 µM): 0.297
relative viability ([15]; first compound 0.4 µM): 0.237
relative viability ([15]; first compound 1.265 µM): 0.328
relative viability ([16]; first compound 0.04 µM): 0.738
relative viability ([16]; first compound 0.1265 µM): 0.793
relative viability ([16]; first compound 0.4 µM): 0.676
relative viability ([16]; first compound 1.265 µM): 0.728
relative viability ([18]; first compound 0.04 µM): 0.168
relative viability ([18]; first compound 0.1265 µM): 0.191
relative viability ([18]; first compound 0.4 µM): 0.242
relative viability ([18]; first compound 1.265 µM): 0.203
relative viability ([19]; first compound 0.04 µM): 0.635
relative viability ([19]; first compound 0.1265 µM): 0.648
relative viability ([19]; first compound 0.4 µM): 0.755
relative viability ([19]; first compound 1.265 µM): 0.598
relative viability ([20]; first compound 0.04 µM): 1.1
relative viability ([20]; first compound 0.1265 µM): 1.38
relative viability ([20]; first compound 0.4 µM): 1.23
relative viability ([20]; first compound 1.265 µM): 0.981
relative viability ([21]; first compound 0.04 µM): 0.246
relative viability ([21]; first compound 0.1265 µM): 0.32
relative viability ([21]; first compound 0.4 µM): 0.21
relative viability ([21]; first compound 1.265 µM): 0.246
relative viability ([22]; first compound 0.04 µM): 0.73
relative viability ([22]; first compound 0.1265 µM): 0.919
relative viability ([22]; first compound 0.4 µM): 0.767
relative viability ([22]; first compound 1.265 µM): 0.583
